Laboratory results published in the NIST ThermoML archive (doi:10.1021/je300347z).

Columns and labels:
[1] = Liquid; for mass density: 293.2 K, 101.33 kPa, Vibrating tube method
[2] = refractive index (Na D-line) (dimensionless); settings: 293.2 K; 101.33 kPa; Liquid; Standard Abbe refractometry

C=C(C)[C@H]1CC=C(C)CC1 [(R)-1-methyl-4-(1-methylethenyl)cyclohexene]
Settings	mass density [kg/m3]	refractive index
[1]	814.83	–
[2]	–	1.473

[1]
Settings	vapor or sublimation pressure [kPa]
375.5 K	10
394.5 K	20
403.2 K	27.48
406.5 K	30
415.7 K	40
415.8 K	40
423.2 K	49.74
423.4 K	50
429.8 K	60
435.5 K	70
440.5 K	80
445 K	90
450 K	100

CCCCCCO [hexan-1-ol]
Settings	mass density [kg/m3]	refractive index
[1]	816.31	–
[2]	–	1.4207

[1]
Settings	vapor or sublimation pressure [kPa]
369.8 K	10
385.7 K	20
395.7 K	30
403.2 K	40
403.4 K	40
409.3 K	50
414.5 K	60
419 K	70
423 K	80
426.5 K	90
429.6 K	99.7

CCCCCO [pentan-1-ol]
Settings	mass density [kg/m3]	refractive index
[1]	814.16	–
[2]	–	1.4097

[1]
Settings	vapor or sublimation pressure [kPa]
354 K	10
368.7 K	20
378 K	30
384.7 K	40
385.3 K	40
391 K	50
395.9 K	60
400.2 K	70
403.9 K	80
407.3 K	90
410.4 K	100

CC(C)O [propan-2-ol]
Settings	mass density [kg/m3]	refractive index
[1]	785.42	–
[2]	–	1.3771

[1]
Settings	vapor or sublimation pressure [kPa]
307.1 K	10
319.9 K	20
328 K	30
334 K	40
334.1 K	40
338.8 K	50
342.9 K	60
346.5 K	70
349.7 K	80
352.5 K	90
355 K	100

CCO [ethanol]
Settings	mass density [kg/m3]	refractive index
[1]	789.91	–
[2]	–	1.3612

[1]
Settings	vapor or sublimation pressure [kPa]
302.4 K	10
315.4 K	20
323.6 K	30
329.7 K	40
330 K	40
334.7 K	50
338.8 K	60
342.4 K	70
345.6 K	80
348.5 K	90
351.1 K	100

CCCCO [butan-1-ol]
Settings	mass density [kg/m3]	refractive index
[1]	810.28	–
[2]	–	1.3993

[1]
Settings	vapor or sublimation pressure [kPa]
337.2 K	10
351.1 K	20
360 K	30
366.7 K	40
372.1 K	50
376.6 K	60
380.5 K	70
384 K	80
387.2 K	90
390.1 K	100

CCCO [propan-1-ol]
Settings	mass density [kg/m3]	refractive index
[1]	801.33	–
[2]	–	1.3851

[1]
Settings	vapor or sublimation pressure [kPa]
319.6 K	10
332.8 K	20
341.3 K	30
347.7 K	40
352.7 K	50
357.1 K	60
360.8 K	70
364.1 K	80
367.1 K	90
369.8 K	100
